Reference: patent US20050170485A1, “Culture having phenol oxidase-like activity” (priority 2002, published 2005)

Experiments:
Assay type in all cases: biochemical
[1] = system: culture of Flammulina velutipes strain IFO 30601; assay: Oxidative coupling reaction with 4-aminoantipyrine by the culture; conditions: for Specific Activity, Culture (oxidative coupling with 4-aminoantipyrine): reaction pH 7.0, 25° C., substrate 2.0 mM; for activity of the culture for the substrate in words, oxidative coupling reaction: pH 7.0
Procedure: Next, the oxidative coupling reaction of the culture obtained in (2) in Example 1 mentioned above was determined by using color development as an index by the oxidative condensation of the substrate (hydrogen donor) with 4-aminoantipyrine, catalyzed by the culture of the present invention.
As the hydrogen donors, there were used phenolic compounds (phenol, 2-methoxyphenol, 2,6-dimethoxyphenol, catechol, resorcinol, hydroquinone, pyrogallol, gallic acid, propyl gallate, 1-naphthol, catechin), aminophenolic compounds (o-aminophenol, m-aminophenol, p-aminophenol), diaminophenolic compounds (o-phenylenediamine, m-phenylenediamine, p-phenylenediamine), and heterocyclic compounds (5-hydroxyindole, 2,6-diaminopyridine).
The above-mentioned culture solution was added to a reaction system containing 4-aminoantipyrine and an optional hydrogen donor. Thereafter, the activity of the culture of the present invention was assayed by determining a change in absorbance at 490 nm for the phenolic compound, the diaminophenolic compound and the heterocyclic compound, or determining a change in absorbance at 450 nm for the aminophenolic compound. As to a substrate hardly soluble in water, there was used one obtained by dissolving the substrate in a small amount of dimethyl sulfoxide and diluting the resulting solution with deionized water to a desired concentration. In Table 4, DMSO is an abbreviation for dimethyl sulfoxide.
(§1) Concretely, 190 μl of 105.3 mM phosphate buffer (pH 7.0) containing 0.4 μmol of a substrate and 4.0 μmol of 4-aminoantipyrine was pre-incubated in wells of a 96-well microplate [manufactured by Corning, Costor (registered trademark) 3368] at 25° C. for 1 minute. Next, 10 μl of the above-mentioned culture solution was added to the resulting mixture, and thereafter, the mixture was incubated for 1 hour. A change in absorbance at 490 nm or 450 nm was determined for the resulting product. One unit (U) of the activity regarding the oxidative coupling reaction was defined as an amount for increasing the absorbance by 1 per one minute.

[2] = biological target: T1, bilirubin oxidase from the strain of the genus Myrothecium (Albifimbria verrucaria, UniProt Q12737); assay: Oxidative coupling reaction with 4-aminoantipyrine by bilirubin oxidase (comparison); conditions: reaction pH 8.0, substrate 2.0 mM
T1 sequence (Q12737 39-572): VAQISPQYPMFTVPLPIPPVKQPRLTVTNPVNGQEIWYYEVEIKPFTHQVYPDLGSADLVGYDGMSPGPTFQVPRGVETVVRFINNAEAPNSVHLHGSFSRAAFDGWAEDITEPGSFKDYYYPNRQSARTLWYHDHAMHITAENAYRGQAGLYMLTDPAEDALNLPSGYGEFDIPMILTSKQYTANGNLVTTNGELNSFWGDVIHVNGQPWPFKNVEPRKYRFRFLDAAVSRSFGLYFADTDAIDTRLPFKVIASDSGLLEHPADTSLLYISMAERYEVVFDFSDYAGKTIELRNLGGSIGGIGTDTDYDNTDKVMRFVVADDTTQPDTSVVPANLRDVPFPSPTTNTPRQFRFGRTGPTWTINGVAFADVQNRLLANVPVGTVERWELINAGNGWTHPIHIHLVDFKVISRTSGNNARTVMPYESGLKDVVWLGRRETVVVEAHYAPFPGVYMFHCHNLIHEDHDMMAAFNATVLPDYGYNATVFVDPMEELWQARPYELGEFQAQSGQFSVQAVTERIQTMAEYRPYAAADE
Procedure: as §1
In addition, for the comparison, the examination was made in the same manner for bilirubin oxidase from the strain of the genus Myrothecium except that the above-mentioned buffer was replaced with 105.3 mM Tris-HCl buffer (pH 8.0).

[3] = system: culture of Flammulina velutipes strain IFO 30601; assay: Direct oxidation reaction by the culture; conditions: for activity of the culture compared with laccase from Japanese lacquer, direct oxidation / activity of the culture compared with bilirubin oxidase from the genus Myrothecium, direct oxidation: pH 7.0, relative activities of Table 7; for Relative Activity, Culture (direct oxidation): reaction pH 7.0, 2-chloro 1,4-phenylenediamine = 100
Procedure: Further, the direct oxidation reaction of the culture obtained in the above-mentioned example was determined by using color development due to oxidative polymerization of a substrate generated by the direct action of the culture of the present invention on the substrate as an index.
As the substrates, there were used diaminophenolic compounds (2-chloro 1,4-phenylenediamine, p-phenylenediamine, 2,5-diaminotoluene, N-phenyl-p-phenylenediamine, toluylene-3,4-diamine, m-phenylenediamine), aminophenolic compounds (o-aminophenol, m-aminophenol, 5-amino-o-cresol, p-aminophenol, p-methylaminophenol), and phenolic compounds (2,6-dimethoxyphenol, catechol, resorcinol, hydroquinone, pyrogallol, gallic acid, propyl gallate, 1-naphthol, […], 2,3,4-trihydroxybenzophenone, 2,3,4,4-tetrahydroxybenzophenone). As to a substrate hardly soluble in water, there was used one obtained by dissolving the substrate in a small amount of dimethyl sulfoxide and diluting the resulting solution with deionized distilled water to a desired concentration. In Table 6, %” indicates volume/volume %.
(§2) Concretely, 180 μl of 0.89 mM sodium phosphate buffer (pH 7.0) containing […] substrate was pre-incubated in wells of a 96-well microplate [manufactured by Corning, Costor (registered trademark) 3368] at 25° C. for 1 minute. Next, 20 μl of the above-mentioned culture solution was added to the resulting mixture. A change in absorbance at 490 nm, 450 nm or 405 nm was determined for the resulting product, depending on the substrate. Here, 1 U (unit) of the activity regarding the direct oxidative reaction was defined as an amount for increasing the absorbance by 1 per one minute.

[4] = system: laccase from Japanese lacquer; assay: Direct oxidation reaction by laccase (comparison); conditions: reaction pH 7.0; 2-chloro 1,4-phenylenediamine = 100
Procedure: Next, 20 μl of the above-mentioned culture solution was added to the resulting mixture. A change in absorbance at 490 nm, 450 nm or 405 nm was determined for the resulting product, depending on the substrate. Here, 1 U (unit) of the activity regarding the direct oxidative reaction was defined as an amount for increasing the absorbance by 1 per one minute.
(§3) In addition, for the comparison, the substrate specificities at pH 7.0 for laccase from Japanese lacquer and bilirubin oxidase from the strain belonging to the genus Myrothecium were also examined in the same manner.

[5] = biological target: T2, bilirubin oxidase from the strain belonging to the genus Myrothecium (Albifimbria verrucaria, UniProt Q12737); assay: Direct oxidation reaction by bilirubin oxidase (comparison); design: concentration or dose not given beside the values; conditions: reaction pH 7.0; 2-chloro 1,4-phenylenediamine = 100
T2 sequence (Q12737 39-572): T1 sequence (Q12737 39-572)
Procedure: as §2, §3
The relative activity (%) for each substrate is shown in Table 7, in which the measured value for a case where a representative chemical dye 2-chloro 1,4-phenylenediamine was used as a substrate is 100.

[6] = system: culture of Flammulina velutipes strain IFO 30601; assay: Substrate specificity of the culture (phenol oxidase-like activity, Table 1); conditions: pH 7.0; determined wavelength per substrate (Table 1)

Row | Molecule | Specific Activity, Culture (oxidative coupling with 4-aminoantipyrine) [1] | Specific Activity, Bilirubin Oxidase from Strain Belonging to Genus Myrothecium (oxidative coupling with 4-aminoantipyrine) [2] | activity of the culture compared with laccase from Japanese lacquer, direct oxidation [3] | Relative Activity, Culture (direct oxidation) [3] | Relative Activity, Laccase from Japanese Lacquer (direct oxidation) [4] | Relative Activity, Bilirubin Oxidase from Strain Belonging to Genus Myrothecium (direct oxidation) [5] | U (activity of the culture on the substrate) [6] | activity of the culture for the substrate in words, oxidative coupling reaction [1] | activity of the culture compared with bilirubin oxidase from the genus Myrothecium, direct oxidation [3] | activity of the culture for the substrate in words, direct oxidation reaction ([3]; pH 7.0)
1 | Nc1cccc(N)c1 [m-Phenylenediamine] | 29.7 U/mg Protein | 1.7 U/mg Protein | even higher activity | 26% | 4% | 14% |  |  |  | 
2 | COc1ccccc1O [2-Methoxyphenol] | 14.5 U/mg Protein | 2.5 U/mg Protein |  |  |  |  | 0.117 U | especially high activity |  | 
3 | CCn1c(=NN=c2sc3cc(S(=O)(=O)O)ccc3n2CC)sc2cc(S(=O)(=O)O)ccc21 [ABTS] |  |  |  |  |  |  | 0.683 U |  |  | 
4 | CCCOC(=O)c1cc(O)c(O)c(O)c1 [Propyl Gallate] | −0.2 U/mg Protein | −0.1 U/mg Protein | higher activity | 34% | 14% | 85% |  |  | higher activity | 
5 | N[C@@H](Cc1ccc(O)cc1)C(=O)O [L-Tyrosine] |  |  |  |  |  |  | 0.018 U |  |  | 
6 | COc1cc(/C=N/N=C/c2cc(OC)c(O)c(OC)c2)cc(OC)c1O [Syringaldazine] |  |  |  |  |  |  | 0.141 U |  |  | 
7 | Catechin | 14.0 U/mg Protein | 4.6 U/mg Protein |  |  |  |  |  | especially high activity |  | 
8 | Nc1cccc(O)c1 [m-Aminophenol] | 8.8 U/mg Protein | 1.3 U/mg Protein | even higher activity | 40% | 3% | 3% |  |  | even higher activity | 
9 | Oc1cccc(O)c1 [Resorcinol] | 5.7 U/mg Protein | 25.6 U/mg Protein | higher activity | 75% | 25% | 91% |  |  |  | 
10 | Nc1cccc(N)n1 [2,6-Diaminopyridine] | 37.7 U/mg Protein | 2.3 U/mg Protein |  |  |  |  |  | high activity |  | 
11 | O=C(O)c1cc(O)c(O)c(O)c1 [Gallic acid] | 0.9 U/mg Protein | 14.9 U/mg Protein | even higher activity | 65% | 9% | 88% |  |  |  | 
12 | Oc1ccc(O)cc1 [Hydroquinone] | 2.1 U/mg Protein | 0.5 U/mg Protein | even higher activity | 20% | 2% | 4% |  |  | even higher activity | 
13 | Oc1ccccc1 [Phenol] | 8.1 U/mg Protein | 0.9 U/mg Protein |  |  |  |  |  |  |  | 
14 | Oc1cccc(O)c1O [Pyrogallol] | 3.2 U/mg Protein | −27.6 U/mg Protein |  | 184% | 187% | 104% |  |  |  | high activity
15 | Oc1cccc2ccccc12 [1-Naphthol] | 18.1 U/mg Protein | 33.0 U/mg Protein |  | 17% | 17% | 50% |  | especially high activity | even higher activity | 
16 | Oc1cccc2[nH]ccc12 [4-Hydroxyindole] |  |  |  |  |  |  | 0.078 U |  |  | 
17 | Nc1ccccc1N [o-Phenylenediamine] | 15.1 U/mg Protein | 4.5 U/mg Protein |  |  |  |  |  |  |  | 
18 | Oc1ccc2[nH]ccc2c1 [5-Hydroxyindole] | 4.7 U/mg Protein | 1.9 U/mg Protein |  |  |  |  |  |  |  | 
